Assay results reported in patent US20240415894A1, “MITOCHONDRIAL AUGMENTATION THERAPY WITH STEM CELLS ENRICHED WITH FUNCTIONAL MITOCHONDRIA” (Minovia Therapeutics Ltd., priority 2018, published 2024).

System: Mouse fibroblast cells (3T3)
Assay: ATP level in Rotenone-treated mouse fibroblast cells (ATPlite kit)
Type: cell-based
Conditions: 0.5 μM Rotenone for 4 hours; vs control cells
Experimental: Mouse fibroblast cells (104, 3T3) were either not treated (control) or treated with 0.5 μM Rotenone (Rotenone, mitochondrial complex I irreversible inhibitor, CAS number 83-79-4) for 4 hours, washed, and further treated with 0.02 mg/ml mouse placental mitochondria (Rotenone+Mitochondria) for 3 hours. The cells were washed and ATP level was determined using the Perkin Elmer ATPlite kit (FIG. 2), as previously shown in WO 2016/135723.

SMILES: C=C(C)[C@H]1Cc2c(ccc3c2O[C@@H]2COc4cc(OC)c(OC)cc4[C@@H]2C3=O)O1 [Rotenone]
- decrease of ATP levels: about 50%
